pIC50: −log10 of the molar value.
Columns and labels:
[1] = molecular target: K-Ras^G12C : hSOS1 interaction (Homo sapiens, UniProt Q07889); assay: Biochemical assay 1: K-Ras^G12C interaction assay with hSOS1 (HTRF); format: binding; settings: for pIC50: read-out: Assay 1 (KRAS-SOS Interaction) activity expressed as IC50
[2] = molecular target: human SOS1 (nucleotide exchange of K-Ras^G12C) (Homo sapiens, UniProt Q07889); assay: Biochemical assay 2: K-Ras^G12C activation assay by hSOS1 at high GTP concentration (HTRF); settings: high GTP; for pIC50: read-out: Assay 2 (KRAS-Activation by SOS high GTP) activity expressed as IC50; for inhibition at 20 µM: read-out: Assay 2 (KRAS-Activation by SOS high GTP) activity expressed as % inhibition at 20 μM
[3] = molecular target: human SOS1 (loading of human K-Ras^G12C-GDP with fluorescent GTP-analog) (Homo sapiens, UniProt Q07889); assay: Biochemical assay 3: K-Ras^G12C activation assay by hSOS1 (HTRF); settings: no GTP; for pIC50: read-out: Assay 3 (KRAS-Activation by SOS no GTP) activity expressed as IC50; for inhibition at 20 µM: read-out: Assay 3 (KRAS-Activation by SOS no GTP) activity expressed as % inhibition at 20 μM

| SMILES | pIC50 [1] | pIC50 [2] | pIC50 [3] | inhibition at 20 µM [2] | inhibition at 20 µM [3] | inhibition at 20 µM ([1]; read-out: Assay 1 (KRAS-SOS Interaction) activity expressed as % inhibition at 20 μM) |
| --- | --- | --- | --- | --- | --- | --- |
| COc1cc2nc(C)nc(N[C@H](C)c3cccc(-c4ccc5[nH]ccc5c4)c3)c2cc1OC [Example 85, N-{(1R)-1-[3-(1H-indol-5-yl)phenyl]ethyl}-6,7-dimethoxy-2-methylquinazolin-4-amine] | 6.16 | 6.12 | 5.90 |  |  |  |
| COc1cc2nc(C)nc(N[C@H](C)c3cccc(-c4ccoc4)c3)c2cc1OC [Example 86, N-{(1R)-1-[3-(furan-3-yl)phenyl]ethyl}-6,7-dimethoxy-2-methylquinazolin-4-amine] | 6.24 | 6.03 | 6.16 |  |  |  |
| COc1cc2nc(C)nc(N[C@H](C)c3cccc(-c4csc5ccccc45)c3)c2cc1OC [Example 87, N-{(1R)-1-[3-(1-benzothiophen-3-yl)phenyl]ethyl}-6,7-dimethoxy-2-methylquinazolin-4-amine] | 5.35 | 5.46 | 5.13 |  |  |  |
| COc1cc2nc(C)nc(N[C@H](C)c3cccc(-c4cc5ccccc5n4C)c3)c2cc1OC [Example 88, 6,7-dimethoxy-2-methyl-N-{(1R)-1-[3-(1-methyl-1H-indol-2-yl)phenyl]ethyl}quinazolin-4-amine] | 5.45 | 5.59 | 5.21 |  |  |  |
| CCC/C=C/c1cccc([C@@H](C)Nc2nc(C)nc3cc(OC)c(OC)cc23)c1 [Example 89, 6,7-dimethoxy-2-methyl-N-[(1R)-1-{3-[(1E)-pent-1-en-1-yl]phenyl}ethyl]quinazolin-4-amine] | 5.77 | 5.57 | 5.37 |  |  |  |
| COc1cc2nc(C)nc(N[C@H](C)c3cccc(/C=C/C4CCCCC4)c3)c2cc1OC [Example 90, N-[(1R)-1-{3-[(E)-2-cyclohexylethenyl]phenyl}ethyl]-6,7-dimethoxy-2-methylquinazolin-4-amine] | 4.96 |  |  | 46% | 33% |  |
| COc1cc2nc(C)nc(N[C@H](C)c3cccc(-c4ccccc4Oc4ccccc4)c3)c2cc1OC [Example 91, 6,7-dimethoxy-2-methyl-N-[(1R)-1-(2′-phenoxybiphenyl-3-yl)ethyl]quinazolin-4-amine] | 4.82 |  |  | 36% | 38% |  |
| COc1cc2nc(C)nc(N[C@H](C)c3cccc(-c4ccc(NC(=O)OC(C)(C)C)cc4)c3)c2cc1OC [Example 92, tert-butyl (3′-{(1R)-1-[(6,7-dimethoxy-2-methylquinazolin-4-yl)amino]ethyl}biphenyl-4-yl)carbamate] | 5.33 | 5.44 | 5.03 |  |  |  |
| COc1cc2nc(C)nc(N[C@H](C)c3cccc(-c4cccc(/C=C/C#N)c4)c3)c2cc1OC [Example 93, (2E)-3-(3′-{(1R)-1-[(6,7-dimethoxy-2-methylquinazolin-4-yl)amino]ethyl}biphenyl-3-yl)prop-2-enenitrile] | 5.73 | 5.80 | 5.54 |  |  |  |
| COc1cc2nc(C)nc(N[C@H](C)c3cccc(-c4ccc(C)cc4C)c3)c2cc1OC [Example 94, N-[{1R)-1-(2′,4′-dimethylbiphenyl-3-yl)ethyl]-6,7-dimethoxy-2-methylquinazolin-4-amine] | 5.62 | 5.50 | 5.37 |  |  |  |
| COc1cc2nc(C)nc(N[C@H](C)c3cccc(-c4ccc(C(C)=O)s4)c3)c2cc1OC [Example 95, 1-[5-(3-{(1R)-1-[(6,7-dimethoxy-2-methylquinazolin-4-yl)amino]ethyl}phenyl)thiophen-2-yl]ethanone] | 6.10 | 6.33 | 5.97 |  |  |  |
| COc1cc2nc(C)nc(N[C@H](C)c3cccc(-c4ccc5c(c4)OCO5)c3)c2cc1OC [Example 96, N-{(1R)-1-[3-(1,3-benzodioxol-5-yl)phenyl]ethyl}-6,7-dimethoxy-2-methylquinazolin-4-amine] | 5.98 | 5.96 | 5.86 |  |  |  |
| COc1cc2nc(C)nc(N[C@H](C)c3cccc(-c4ccc(OCc5ccccc5)cc4)c3)c2cc1OC [Example 97, N-{(1R)-1-[4′-(benzyloxy)biphenyl-3-yl]ethyl}-6,7-dimethoxy-2-methylquinazolin-4-amine] |  |  |  | 28% | 38% | 39% |
| COc1cccc(-c2cccc([C@@H](C)Nc3nc(C)nc4cc(OC)c(OC)cc34)c2)c1 [Example 99, 6,7-dimethoxy-N-[(1R)-1-(3′-methoxybiphenyl-3-yl)ethyl]-2-methylquinazolin-4-amine] | 5.66 | 5.85 | 5.58 |  |  |  |
| COc1cc2nc(C)nc(N[C@H](C)c3cccc(-c4cccc(C(F)(F)F)c4)c3)c2cc1OC [Example 100, 6,7-dimethoxy-2-methyl-N-{(1R)-1-[3′-(trifluoromethyl)biphenyl-3-yl]ethyl}quinazolin-4-amine] | 5.27 | 5.35 | 5.07 |  |  |  |
| COc1cc2nc(C)nc(N[C@H](C)c3cccc(-c4ccccc4S(=O)(=O)N(C)C)c3)c2cc1OC [Example 101, 3′-{(1R)-1-[(6,7-dimethoxy-2-methylquinazolin-4-yl)amino]ethyl}-N,N-dimethylbiphenyl-2-sulfonamide] | 6.15 | 6.05 | 5.74 |  |  |  |
| CCCOc1ccccc1-c1cccc([C@@H](C)Nc2nc(C)nc3cc(OC)c(OC)cc23)c1 [Example 102, 6,7-dimethoxy-2-methyl-N-[(1R)-1-(2′-propoxybiphenyl-3-yl)ethyl]quinazolin-4-amine] | 5.20 | 5.45 | 4.94 |  |  |  |
| COc1cc2nc(C)nc(N[C@H](C)c3cccc(-c4ccccc4C(=O)N(C)C)c3)c2cc1OC [Example 103, 3′-{(1R)-1-[(6,7-dimethoxy-2-methylquinazolin-4-yl)amino]ethyl}-N,N-dimethylbiphenyl-2-carboxamide] | 5.84 | 5.61 | 5.56 |  |  |  |
| COCc1ccccc1-c1cccc([C@@H](C)Nc2nc(C)nc3cc(OC)c(OC)cc23)c1 [Example 104, 6,7-dimethoxy-N-{(1R)-1-[2′-(methoxymethyl)biphenyl-3-yl]ethyl}-2-methylquinazolin-4-amine] | 5.74 | 5.72 | 5.60 |  |  |  |
| COc1cc2nc(C)nc(N[C@H](C)c3cccc(-c4ccc5c(ccn5C)c4)c3)c2cc1OC [Example 105, 6,7-dimethoxy-2-methyl-N-{(1R)-1-[3-{1-methyl-1H-indol-5-yl)phenyl]ethyl}quinazolin-4-amine] | 5.62 | 5.86 | 5.56 |  |  |  |
| COc1cc2nc(C)nc(N[C@H](C)c3cccc(-c4cccc(C(=O)N(C)C)c4)c3)c2cc1OC [Example 106, 3′-{(1R)-1-[(6,7-dimethoxy-2-methylquinazolin-4-yl)amino]ethyl}-N,N-dimethylbiphenyl-3-carboxamide] | 5.85 | 5.82 | 5.69 |  |  |  |
| COc1cc2nc(C)nc(N[C@H](C)c3cccc(-c4ccc(CO)s4)c3)c2cc1OC [Example 107, [5-(3-{(1R)-1-[(6,7-dimethoxy-2-methylquinazolin-4-yl)amino]ethyl}phenyl)thiophen-2-yl]methanol] | 6.50 | 6.33 | 6.36 |  |  |  |
| COc1cc2nc(C)nc(N[C@H](C)c3cccc(-c4ccncc4C)c3)c2cc1OC [Example 108, 6,7-dimethoxy-2-methyl-N-{(1R)-1-[3-(3-methylpyridin-4-yl)phenyl]ethyl}quinazolin-4-amine] | 6.09 | 6.05 | 5.91 |  |  |  |
| COc1cc2nc(C)nc(N[C@H](C)c3cccc(-c4ccc5cc[nH]c5c4)c3)c2cc1OC [Example 109, N-{(1R)-1-[3-(1H-indol-6-yl)phenyl]ethyl}-6,7-dimethoxy-2-methylquinazolin-4-amine] | 6.00 | 6.41 | 5.85 |  |  |  |
| COc1cc2nc(C)nc(N[C@H](C)c3cccc(-c4cccc5[nH]ccc45)c3)c2cc1OC [Example 110, N-{(1R)-1-[3-(1H-indol-4-yl)phenyl]ethyl}-6,7-dimethoxy-2-methylquinazolin-4-amine] | 5.98 | 6.04 | 5.92 |  |  |  |
| COc1ncc(-c2cccc([C@@H](C)Nc3nc(C)nc4cc(OC)c(OC)cc34)c2)cn1 [Example 111, 6,7-dimethoxy-N-{(1R)-1-[3-(2-methoxypyrimidin-5-yl)phenyl]ethyl}-2-methylquinazolin-4-amine] | 5.68 | 5.78 | 5.48 |  |  |  |
| COc1cc2nc(C)nc(N[C@H](C)c3cccc(-c4cccc(S(C)(=O)=O)c4)c3)c2cc1OC [Example 112, 6,7-dimethoxy-2-methyl-N-{(1R)-1-[3′-(methylsulfonyl)biphenyl-3-yl]ethyl}quinazolin-4-amine] | 6.16 | 6.02 | 5.95 |  |  |  |
| COc1cc2nc(C)nc(N[C@H](C)c3cccc(-c4ccc5c(c4)CCO5)c3)c2cc1OC [Example 113, N-{(1R)-1-[3-(2,3-dihydro-1-benzofuran-5-yl)phenyl]ethyl}-6,7-dimethoxy-2-methylquinazolin-4-amine] | 5.87 | 6.08 | 5.68 |  |  |  |
| COc1cc2nc(C)nc(N[C@H](C)c3cccc(/C=C/c4ccccc4)c3)c2cc1OC [Example 114, 6,7-dimethoxy-2-methyl-N-[(1R)-1-{3-[(E)-2-phenylethenyl]phenyl}ethyl]quinazolin-4-amine] | 5.28 | 5.62 | 5.04 |  |  |  |

Reference: patent publication US20240083857A1, “2-Methyl-Quinazolines” (Bayer Pharma Aktiengesellschaft, priority 2017, published 2024)
